Our source for the IC50 values is BindingDB's records for patent US20250382289 (Xizang Haisco Pharmaceutical, 2025).

Chain of Ubiquitin carboxyl-terminal hydrolase 1/WD repeat-containing protein 48 (O94782 whole entry): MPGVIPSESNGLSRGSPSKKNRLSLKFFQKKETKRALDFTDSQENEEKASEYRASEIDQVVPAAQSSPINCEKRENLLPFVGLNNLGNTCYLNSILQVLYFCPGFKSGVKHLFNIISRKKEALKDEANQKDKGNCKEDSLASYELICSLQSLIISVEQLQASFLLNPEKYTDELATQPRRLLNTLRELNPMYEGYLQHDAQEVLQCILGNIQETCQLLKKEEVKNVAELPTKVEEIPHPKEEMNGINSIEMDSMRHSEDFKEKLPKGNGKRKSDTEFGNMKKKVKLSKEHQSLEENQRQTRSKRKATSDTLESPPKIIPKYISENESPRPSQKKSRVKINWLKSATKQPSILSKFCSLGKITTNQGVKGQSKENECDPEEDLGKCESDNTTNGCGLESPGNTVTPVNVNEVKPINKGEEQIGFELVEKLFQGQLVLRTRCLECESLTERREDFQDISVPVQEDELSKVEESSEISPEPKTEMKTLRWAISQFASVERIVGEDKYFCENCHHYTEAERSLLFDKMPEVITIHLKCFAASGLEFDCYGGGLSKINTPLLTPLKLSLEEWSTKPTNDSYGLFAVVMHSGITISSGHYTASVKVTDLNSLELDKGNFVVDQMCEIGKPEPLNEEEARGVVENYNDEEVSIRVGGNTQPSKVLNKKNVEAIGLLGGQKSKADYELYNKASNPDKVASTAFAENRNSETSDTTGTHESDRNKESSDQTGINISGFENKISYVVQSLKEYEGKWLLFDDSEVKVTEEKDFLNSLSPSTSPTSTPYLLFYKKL
Chain of Ubiquitin carboxyl-terminal hydrolase 1/WD repeat-containing protein 48 (Q8TAF3 whole entry, further chain): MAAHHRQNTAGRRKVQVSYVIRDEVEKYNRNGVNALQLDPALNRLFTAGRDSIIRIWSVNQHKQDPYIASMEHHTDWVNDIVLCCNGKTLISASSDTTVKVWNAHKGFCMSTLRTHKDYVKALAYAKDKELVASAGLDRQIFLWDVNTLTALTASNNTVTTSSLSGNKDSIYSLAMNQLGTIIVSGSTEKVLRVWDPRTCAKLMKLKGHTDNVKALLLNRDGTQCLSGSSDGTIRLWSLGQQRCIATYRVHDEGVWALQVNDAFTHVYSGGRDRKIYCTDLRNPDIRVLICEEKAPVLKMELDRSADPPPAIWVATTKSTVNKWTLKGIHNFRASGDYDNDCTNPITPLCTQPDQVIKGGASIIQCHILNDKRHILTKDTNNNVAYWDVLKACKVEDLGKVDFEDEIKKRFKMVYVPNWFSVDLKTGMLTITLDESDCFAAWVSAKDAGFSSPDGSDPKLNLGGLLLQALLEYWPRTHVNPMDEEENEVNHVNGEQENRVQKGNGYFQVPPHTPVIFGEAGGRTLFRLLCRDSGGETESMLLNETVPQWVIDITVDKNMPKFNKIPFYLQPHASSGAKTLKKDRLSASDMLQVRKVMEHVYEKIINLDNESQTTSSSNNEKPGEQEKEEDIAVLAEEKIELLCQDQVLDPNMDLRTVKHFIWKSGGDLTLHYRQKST

The assay deals with Ubiquitin carboxyl-terminal hydrolase 1/WD repeat-containing protein 48 (Homo sapiens, UniProt O94782). As to the kind of experiment: Inhibitory Activity on USP1/UAF1 Enzymology. How it is done:
Ubiquitin rhodamine 110 was used as a substrate to detect the activity of the deubiquitinating enzyme USP1/UAF1 after drug treatment. The total test system was 20 μl, and the test buffer comprises 50 mM Tris-HCl (pH 7.8), 0.5 mM EDTA, 0.01% Bovine Serum Albumin, 1 mM DTT, and 0.01% Tween-20.
On to `Fc1c(-c2c(OC(F)F)ncnc2C2CC2)ncc2cnn(CC34CCC(c5nc(C(F)(F)F)cn5CC5CC5)(CC3)CC4)c12` [US20250382289, Compound 10], for which the IC50 (in general, the midpoint of a concentration-inhibition curve) was under 20 nM.
The same measure for `Fc1c(-c2c(OC(F)F)ncnc2C2CC2)ncc2cnn(Cc3ccc(-c4nc(C(F)(F)F)c5n4CC4(CC4)C5)cc3)c12` [US20250382289, Compound 12]: under 20 nM.
To `Fc1c(-c2c(OC(F)F)ncnc2C2CC2)ncc2cnn(Cc3ccc(-c4nc(C(F)(F)F)c5n4CC(F)(F)C5)cc3)c12` [US20250382289, Compound 14] belongs under 20 nM.
`C#CCn1cc(C(F)(F)F)nc1-c1ccc(Cn2ncc3cnc(-c4c(OC(F)F)ncnc4C4CC4)c(F)c32)cc1` [US20250382289, Compound 18] showed an IC50 of under 20 nM.
Molecule `CC#CCn1cc(C(F)(F)F)nc1-c1ccc(Cn2ncc3cnc(-c4c(OC(F)F)ncnc4C4CC4)c(F)c32)cc1` [US20250382289, Compound 19] showed an IC50 of under 20 nM.
The same measure for `CC(C)n1cc(C(F)(F)F)nc1-c1ccc(Cn2ncc3cnc(-c4c(OC(F)F)ncnc4C4CC4)c(F)c32)cc1` [US20250382289, Compound 20]: under 20 nM; for `COc1ncnc(C2CC2)c1-c1ncc2cnn(Cc3ccc(-c4nc(C(F)(F)F)c5n4CC4(CC4)C5)cc3)c2c1F` [US20250382289, Compound 21]: under 20 nM.
